Reference: patent US4724237A, “2-substituted-aminomethyl-1,4-benzodiazepines” (Merck & Co., Inc., priority 1984, dated 1988)
Where a name gives a salt, the structure may show the parent alone. Read-outs that look alike come from different tables or passages of the source. Square brackets hold non-standard residues; d marks the D form. Peptide text beside a SMILES is read from it. * marks the point of attachment. sY = N[C@@H](Cc1ccc(OS(=O)(=O)O)cc1)C(=O)O; Cbz = O=C(OCc1ccccc1)*; Boc = CC(C)(C)OC(=O)*

What was measured:
[1] = target: T1, CCK receptor (brain) (Cavia porcellus, UniProt H0VZC5); experiment: CCK receptor binding (brain) method, inhibition of ^125 I-CCK-33 binding; set-up: species or system male Hartley guinea pig
T1 construct: The cerebral cortex was dissected and used as a receptor source; from tissue; host or cells: cerebral cortex of male Hartley guinea pig, membrane homogenate
Experimental: (§1) Screening of the novel compounds according to the present invention to determine biological activity and obtain an IC50 value for them, in order to identify significant CCK-antagonism, may be accomplished using an ^125 I-CCK receptor binding assay and in vitro isolated tissue preparations. These tests involve the following:
CCK receptor binding (brain) method
CCK-33 was radiolabeled and the binding was performed according to the description for the pancreas method, with modifications according to Saito et al., J. Neurochem., 37, 483-490, 1981.
Male Hartley guinea pigs (300-500 g) were sacrificed by decapitation, and the brains were removed and placed in ice-cold 50 mM Tris HCl (Trizma-7.4)[pH 7.4 at 25° C.]. The cerebral cortex was dissected and used as a receptor source and each gram of fresh guinea pig brain tissue was homogenized in 10 ml of Tris/Trizma buffer with a Brinkman polytron PT-10. The homogenates were centrifuged at 42,000 g for 15 minutes, then the resulting pellets were resuspended in 80 volumes of binding assay buffer (10 mM N-2-hydroxy-ethyl-piperazine-N'-2-ethanesulfonic acid (HEPES), 5 mM MgCl2, 1 mM ethylene glycol-bis-(β-amino-ethyl-ether-N,N'-tetraacetic acid (EGTA), 0.4% BSA and 0.25 mg/ml bacitracin, pH 6.5).
The remainder of the binding assay method was as described for the pancreas method, except that the reaction mixtures were incubated at 25° C. for 2 hours before centrifugation.

[2] = target: T2, CCK receptor (pancreas) (Rattus norvegicus, UniProt P30551); experiment: CCK receptor binding (pancreas) method, inhibition of ^125 I-CCK-33 binding; set-up: species or system male Sprague-Dawley rat; settings: for effect on the ^125 I-CCK receptor binding assay: additional protease inhibitors in the assay buffer
T2 construct: The whole pancreas of a male Sprague-Dawley rat (200-350 g); from tissue; host or cells: whole pancreas of male Sprague-Dawley rat, washed membrane homogenate
T2 sequence (P30551 1-444): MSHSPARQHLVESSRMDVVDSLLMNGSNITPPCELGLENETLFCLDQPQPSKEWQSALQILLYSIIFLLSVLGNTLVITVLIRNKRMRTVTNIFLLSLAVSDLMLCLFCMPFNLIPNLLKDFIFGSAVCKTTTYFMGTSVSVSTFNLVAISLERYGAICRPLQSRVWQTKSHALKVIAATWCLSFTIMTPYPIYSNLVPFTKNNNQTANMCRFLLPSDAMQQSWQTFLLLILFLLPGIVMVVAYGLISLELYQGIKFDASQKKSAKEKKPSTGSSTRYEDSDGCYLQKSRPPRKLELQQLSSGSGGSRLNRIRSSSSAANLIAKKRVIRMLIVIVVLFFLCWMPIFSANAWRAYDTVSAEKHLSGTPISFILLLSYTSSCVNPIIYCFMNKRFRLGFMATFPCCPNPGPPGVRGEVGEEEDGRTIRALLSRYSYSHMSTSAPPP
From the text: as §1
CCK receptor binding (pancreas) method
CCK-33 was radiolabeled with ^125 I-Bolton Hunter reagent (2000 Ci/mmole), as described by Sankara et al. (J. Biol. Chem., 254, 9349-9351, 1979).
The whole pancreas of a male Sprague-Dawley rat (200-350 g), which had been sacrificed by decapitation, was dissected free of fat tissue and homogenized in 20 volumes of ice-cold 50 mM Tris HCl (pH 7.7 at 25° C.) with a Brinkmann Polytron PT-10. The homogenates were centrifuged at 48,000 g for 10 minutes, then the resulting pellets were resuspended in Tris Buffer, centrifuged as above, and resuspended in 200 volumes of binding assay buffer (50 mM Tris HCl, pH 7.7 at 25° C., 5 mM dithiothreitol, 0.1 mM bacitracin, 1.2 mM phenylmethane sulfonyl fluoride and 0.5 mM o-phenanthroline).
All assays were run in duplicate or triplicate, and the reaction mixtures were incubated at 37° C. for 30 minutes and centrifuged in a Beckman Microfuge (4 minutes) immediately after adding 1 ml of ice-cold incubation buffer. The supernatant was aspirated and discarded, and the pellets were counted with a Beckman Gamma 5000.

[3] = in words; cited from earlier work
[4] = system: CCK-receptor; settings: structure-function studies, in words; cited from earlier work
[5] = system: kappa receptor; settings: D. Roemer et al., Nature, 298, 759 (1982); cited from earlier work
[6] = system: rats; settings: J. E. Morley et al.; cited from earlier work
[7] = concentration required to cause inhibition of 50% of the ^125 I-CCK binding, pancreas, 37° C., 30 minutes

T1 sequence (H0VZC5 entry or part of it): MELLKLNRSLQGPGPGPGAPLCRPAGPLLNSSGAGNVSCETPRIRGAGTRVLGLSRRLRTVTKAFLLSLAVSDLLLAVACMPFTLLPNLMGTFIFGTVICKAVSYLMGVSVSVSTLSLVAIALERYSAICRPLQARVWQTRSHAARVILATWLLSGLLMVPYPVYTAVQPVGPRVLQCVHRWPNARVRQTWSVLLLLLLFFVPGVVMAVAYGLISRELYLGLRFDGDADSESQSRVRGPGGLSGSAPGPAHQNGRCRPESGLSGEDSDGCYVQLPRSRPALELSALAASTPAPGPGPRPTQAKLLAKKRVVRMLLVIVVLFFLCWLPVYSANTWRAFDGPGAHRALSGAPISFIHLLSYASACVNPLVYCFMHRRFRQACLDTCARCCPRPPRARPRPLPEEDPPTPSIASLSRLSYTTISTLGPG

Question: With `COC(=O)[C@H](Cc1ccccc1)NCC1CN=C(c2ccccc2F)c2ccccc2N1C` (stereo partly drawn) [Example 5, 1-methyl-2-[1-(S)-1-methoxycarbonyl-2-phenylethylamino]methyl-5-(2'-fluorophenyl)-2,3-dihydro-1H-1,4-benzodiazepine] as the compound, how does the IC50 ([1]; read-out: IC50 CCK, Brain) read?
Answer: Its IC50 is about 100 µM.

Question: And the IC50 [2]?
Answer: The IC50 was 1.6 µM.

Question: What does the source list for `CN1c2ccccc2C(c2ccccc2F)NCC1CNC(=O)c1ccsc1` (stereo not drawn) [Example 14, 1-methyl-2-(3-thiophenecarbonyl)aminomethyl-5-(2'-fluorophenyl)-2,3,4,5-tetrahydro-1H-1,4-benzodiazepine]?
Answer: IC50 ([1]; read-out: IC50 CCK, Brain): ~100 µM; IC50 [2, 7]: 4.8 µM

Question: With `c1cnc2c(c1)ccc1cccnc12` [o-phenanthroline, reference compound] as the compound, how does the “effect on the ^125 I-CCK receptor binding assay” value [2] read?
Answer: The value was “no effect”.

Question: With `CN1c2ccccc2C(c2ccccc2F)=NCC1CNC(=O)[C@@H](O)c1ccccc1` (stereo partly drawn) [Example 3, 1-methyl-2-(2-L-hydroxy-2-phenylacetyl)aminomethyl-5-(2'-fluorophenyl)-2,3-dihydro-1H-1,4-benzodiazepine] as the compound, how does the IC50 ([1]; read-out: IC50 CCK, Brain) read?
Answer: Its IC50 is about 100 µM.

Question: What about the IC50 [2] of the same compound?
Answer: Its IC50 is 0.6 µM.

Question: With `CN1c2ccccc2C(c2ccccc2F)=NCC1CNC(=O)c1ccsc1` (single isomer, unassigned; (-)) [(-)-enantiomer] as the compound, how does the analgesic activity [3] read?
Answer: The analgesic activity was “preferred for high analgesic activity”.

Question: What does the source list for `CN1c2ccccc2C(c2ccccc2F)=NCC1CNC(=O)CCC(=O)OCc1ccccc1` (stereo not drawn) [Example 12, 1-methy-2-benzoylsuccinoylaminomethyl-5-(2'-fluorophenyl)-2,3-dihydro-1H-1,4-benzodiazepine]?
Answer: IC50 [1]: 55 µM; IC50 [2, 7]: 45 µM

Question: Which IC50 [1] does the source give for `CN1c2ccccc2C(c2ccccc2F)=NCC1CNC(=O)Cc1cccc2sccc12` (stereo not drawn) [Example 2, 1-methyl-2-(4-thianaphthenemethylcarbonyl)aminomethyl-5-(2'-fluorophenyl)-2,3-dihydro-1H-1,4-benzodiazepine] here?
Answer: The IC50 was 23 µM.

Question: And the IC50 [2, 7]?
Answer: Its IC50 is 0.45 µM.

Question: For `CC(=O)NCSCC(NC(=O)OC(C)(C)C)C(=O)NCC1CN=C(c2ccccc2F)c2ccccc2N1C` [Example 11, 1-methyl-2-[2(S)-((1,1-dimethylethoxy)carbonyl)amino-3-acetamidomethylmercaptopropanoyl]aminomethyl-5-(2'-fluorophenyl)-2,3-dihydro-1H-1,4-benzodiazepine hemihydrate], which IC50 [2] is on record?
Answer: The IC50 was 24 µM.

Question: Which “effect on the ^125 I-CCK receptor binding assay” value [2] does the source give for `O=S(=O)(F)Cc1ccccc1` [phenyl-methane sulfonyl fluoride, reference compound] here?
Answer: Its value is “no effect”.

Question: What does the source list for `CN1c2ccccc2C(c2ccccc2F)=NCC1CNC(=O)c1cc2ccccc2[nH]1` (stereo not drawn) [Example 1, 1-methyl-2-(2'-indolecarbonyl)aminomethyl-5-(2'-fluorophenyl)-2,3-dihydro-1H-1,4,-benzodiazepine]?
Answer: IC50 ([1]; read-out: IC50 CCK, Brain): 14 µM; IC50 [2, 7]: 0.16 µM

Question: Which CCK antagonism [4] does the source give for `CSCC[C@H](N)C(=O)N[C@@H](CC(=O)O)C(=O)N[C@@H](Cc1ccccc1)C(N)=O` [Met-Asp-Phe-NH2] (H-Met-Asp-Phe-NH2) here?
Answer: Its CCK antagonism is “can function as CCK antagonists”.

Question: Which IC50 ([1]; read-out: IC50 CCK, Brain) does the source give for `CN1c2ccccc2C(c2ccccc2F)=NCC1CNc1cccc(C(F)(F)F)c1` (stereo not drawn) [Example 6, 1-methyl-2-(3'-trifluoromethylphenyl)aminomethyl-5-(2'-fluorophenyl)-2,3-dihydro-1H-1,4-benzodiazepine] here?
Answer: Its IC50 is about 100 µM.

Question: What about the IC50 [2] of the same compound?
Answer: The IC50 was 2.2 µM.

Question: With `CC(=O)NCSCC(=O)NCC1CN=C(c2ccccc2F)c2ccccc2N1C` (stereo not drawn) [Example 13, 1-methyl-2-(acetamidomethylmercaptoacetyl)aminomethyl-5-(2'-fluorophenyl-2,3-dihydro-1H-1,4-benzodiazepine hydrate] as the compound, how does the IC50 ([1]; read-out: IC50 CCK, Brain) read?
Answer: Its IC50 is about 100 µM.

Question: What about the IC50 [2, 7] of the same compound?
Answer: Its IC50 is 100 µM.

Question: With `CN1c2ccccc2C(c2ccccc2F)=NCC1CNC(=O)Cc1c[nH]c2ccccc12` (stereo not drawn) [Example 4, 1-methyl-2-(1H-indol-3-yl)methylcarbonylaminomethyl-5-(2'-fluorophenyl)-2,3-dihydro-1H-1,4-benzodiazepine hydrate] as the compound, how does the IC50 ([1]; read-out: IC50 CCK, Brain) read?
Answer: Its IC50 is 56 µM.

Question: And the IC50 [2]?
Answer: The IC50 was 1 µM.

Question: For `CC(C)COC(=O)NCC1CN=C(c2ccccc2F)c2ccccc2N1C` (stereo not drawn) [Example 8, 1-methyl-2-[(2-methylpropoxy)carbonyl]aminomethyl-5-(2'-fluorophenyl)-2,3-dihydro-1H-1,4-benzodiazepine], which IC50 ([1]; read-out: IC50 CCK, Brain) is on record?
Answer: The IC50 was about 100 µM.

Question: What about the IC50 [2, 7] of the same compound?
Answer: The IC50 was 5.8 µM.

Question: Which CCK antagonism [4] does the source give for `CSCC[C@H](NC(=O)[C@H](Cc1ccc(OS(=O)(=O)O)cc1)NC(=O)OCc1ccccc1)C(=O)NCC(=O)N[C@@H](Cc1c[nH]c2ccccc12)C(=O)N[C@@H](CCSC)C(=O)N[C@@H](CC(=O)O)C(N)=O` [Cbz-Tyr(SO3 H)-Met-Gly-Trp-Met-Asp-NH2] (Cbz-[sY]MGWMD-NH2) here?
Answer: Its CCK antagonism is “can function as CCK antagonists”.

Question: For `CSCC[C@H](NC(=O)OC(C)(C)C)C(=O)N[C@@H](CC(=O)O)C(=O)N[C@@H](Cc1ccccc1)C(N)=O` [Boc-Met-Asp-Phe-NH2] (Boc-Met-Asp-Phe-NH2), which CCK antagonism [4] is on record?
Answer: Its CCK antagonism is “can function as CCK antagonists”.

Question: Which IC50 [1] does the source give for `CN1c2ccccc2C(c2ccccc2F)=NCC1CNC(=O)[C@H](Cc1c[nH]c2ccccc12)NC(=O)OC(C)(C)C` (stereo partly drawn) [Example 7, 1-methyl-2-[2-((1,1-dimethylethoxy)carbonyl)amino-3-(1H-indol-3-yl)propanoyl]aminomethyl-5-(2'-fluorophenyl)-2,3-dihydro-1H-1,4-benzodiazepine] here?
Answer: Its IC50 is 38.6 µM.

Question: What about the IC50 [2] of the same compound?
Answer: The IC50 was 4.1 µM.

Question: Which CCK antagonism [4] does the source give for `CCCC(=O)Nc1nc2c(ncn2[C@@H]2O[C@@H]3COP(=O)(O)O[C@H]3[C@H]2OC(=O)CCC)c(=O)[nH]1` [dibutyryl cyclic GMP] here?
Answer: The CCK antagonism was “most potent”.

Question: For `CN1c2ccccc2C(c2ccccc2F)=NCC1CNC(=O)c1ccsc1` (stereo not drawn), which “opiate agonism, selectivity for the kappa receptor” value [5] is on record?
Answer: The value was “opiate-agonist with selectivity for the kappa receptor”.

Question: What about the food intake [6] of the same compound?
Answer: Its food intake is “increase food intake in rats”.

Question: Which IC50 [1] does the source give for `CN1c2ccccc2C(c2ccccc2F)=NCC1CNC(=O)[C@@H](N)Cc1c[nH]c2ccccc12` (stereo partly drawn) [Example 9, 1-methyl-2-[2-amino-3-(1H-indol-3-yl)propanoyl]aminomethyl-5-(2'-fluorophenyl)-2,3-dihydro-1H-1,4-benzodiazepine dihydrochloride sesquihydrate] here?
Answer: Its IC50 is about 100 µM.

Question: What about the IC50 [2] of the same compound?
Answer: The IC50 was 11.6 µM.

Question: Which IC50 [1] does the source give for `COC(C(=O)NCC1CN=C(c2ccccc2F)c2ccccc2N1C)(c1ccccc1)C(F)(F)F` (stereo not drawn) [Example 10, 1-methyl-2-(2-methoxy-2-trifluoromethyl-2-phenylacetyl)aminomethyl-5-(2'-fluorophenyl)-2,3-dihydro-1H-1,4-benzodiazepine] here?
Answer: The IC50 was about 100 µM.

Question: And the IC50 [2, 7]?
Answer: The IC50 was 13 µM.
